Test results from patent publication US5770573A, “CS-1 peptidomimetics, compositions and methods of using the same” (Cytel Corporation, priority 1995, dated 1998).
Square brackets hold non-standard residues; d marks the D form. Peptide text beside a SMILES is read from it. * marks the point of attachment. PhAc = O=C(Cc1ccccc1)*

Test system: rabbit cardiac allograft coronary arteries
Experiment: Rabbit cardiac allograft model; on Expression on Coronary Arteries: ICAM-1: key: -: negative; ±: minimal; +: little; ++: moderately abundant; +++: very abundant; on Expression on Coronary Arteries: Macrophages: key: -: negative; ±: minimal; +: little; ++: moderately abundant; +++: very abundant; on Expression on Coronary Arteries: T cells: key: -: negative; ±: minimal; +: little; ++: moderately abundant; +++: very abundant; on Expression on Coronary Arteries: Total Fibronectin: key: -: negative; ±: minimal; +: little; ++: moderately abundant; +++: very abundant
Type: in vivo
Excerpt: New Zealand white rabbit SPF hearts were allografted into the necks of similar rabbits to assay a graft-vs-host immunorejection model and the affect of a contemplated compound on that immunoinflammatory response.
Experimental animal model New Zealand white female rabbits (Charles River Lab., Saint Laurent, Quebec), between 3.5 and 4 kg underwent heterotopic cardiac transplant following an experimental protocol previously described [Alonso et al., Am. J. Pathol., 87:415-442 (1977); Clausell et al., Circulation, 89:2768-2779 (1994)]. The animals were unselected to favor an HLA-mismatch, the host rabbits were Pasteurella-free and the donors, outbred animals. Both host and donor rabbits were fed Purina 5321-0.5 percent cholesterol diet (Research Diets Inc., New Brunswick, N.J.), a strategy that has proven useful in accelerating the process of allograft arteriopathy [Alonso et al., Am. J. Pathol., 87:415-442 (1977)]. The diet was commenced four days prior to the transplant and continued in the recipient of the transplant until the completion of the experimental period.
The technique of heterotopic cardiac transplantation has been previously described [Clausell et al., Circulation, 89:2768-2779 (1994)]. Briefly, a vertical incision was performed in the anterior aspect of the neck of the recipient rabbit and the left common carotid artery and the ipsilateral external jugular vein were isolated. The cardiac allograft was placed in the neck by anastomosing the aorta end-to-side to the recipient's carotid artery and the pulmonary end-to-side to the recipient's external jugular vein, following a total period of ischemia for the donor hearts of approximately 30 minutes. Postoperative care was in compliance with the Principles of Laboratory Animal Care formulated by the Canadian National Society for Medical Research.
Beginning the day of the transplant, the animals were randomized and treated with either scrambled compound (control group) at 1 mg/kg s.c. or the inhibitor compound at 1 mg/kg s.c. The doses of the compounds were empirically extrapolated to the in vivo model based on preliminary in vitro studies, of Table 1. No other immunosuppression therapy was administered. The grafts were monitored daily by palpation and maintained for 7 to 8 days, a previously described endpoint that was associated with myocardial rejection (impaired cardiac contractility) and development of the allograft arteriopathy in this model [Clausell et al., Circulation, 89:2768-2779 (1994)]. A total of fourteen animals were studied in the control (n=7) and treated (n=7) groups.
Preparation of the hearts The animals were sacrificed using a lethal dose of euthanol (480 mg i.v.) (MTC Pharmaceutical, Cambridge, Oreg.), host and donor hearts were removed, and the coronary arteries were perfused with saline through the aorta, followed by light fixation by perfusion with 2 percent paraformaldehyde (Sigma, St, Louis, Mo.). […] Different sections of the hearts were either saved in 10 percent formalin (BDH Inc., Toronto, ON) for light microscopy studies or immediately frozen in O.T.C. Compound Tissue Tek (Miles Inc., Elkart, In.) for specific immunohistochemistry studies.
Three different paraffin-embedded tissue sections from host and donor hearts from both control and treated rabbits were stained by the Movat pentachrome method for light microscopy. Morphometric analysis was performed using a Zeiss microscope attached to a computer-generated video analysis system (Perceptics Inc., NuVision software), as described in Clausell et al., Circulation, 89:2768-2779 (1994). The number of vessels with intimal lesions were counted in all three heart sections from each animal studied and are expressed as a percentage of the total vessel number.
In the host hearts, 999 vessels in the control group and 1054 vessels in the treated group were analyzed. In the donor hearts, 827 vessels in the control group and 617 vessels in the treated group were analyzed. […]

Compound: CC(C)C[C@H](NC(=O)[C@H](CC(=O)O)NC(=O)Cc1ccccc1)C(=O)N[C@@H](Cc1ccccc1)C(=O)N1CCC[C@@H]1C(N)=O [Compound ID No. 1066.02, N-phenylacetyl-Asp-Leu-Phe-D-Pro-NH2, reference compound] (PhAc-DLF[dP]-NH2)
- Expression on Coronary Arteries: ICAM-1 (1 mg/kg s.c., 7 to 8 days): +
- Expression on Coronary Arteries: Macrophages (1 mg/kg s.c., 7 to 8 days): +
- Expression on Coronary Arteries: T cells (1 mg/kg s.c., 7 to 8 days): ++
- Expression on Coronary Arteries: Total Fibronectin (1 mg/kg s.c., 7 to 8 days): ++
- Expression on Coronary Arteries: VCAM-1 (1 mg/kg s.c., 7 to 8 days): +
- Expression on Coronary Arteries: MHC Class II (1 mg/kg s.c., 7 to 8 days, immunoperoxidase score): ++
- Vessel Intimal Thickening: Percent of Vessels (donor hearts, 1 mg/kg s.c.): 88%
- Vessel Intimal Thickening: Severity (Percent of Vessel area) (donor hearts, 1 mg/kg s.c.): 36%
- Baseline (rabbit own host heart) of incidence (host heart): 1%
- Baseline (rabbit own host heart) of severity (host heart): 12%
